{"source": "patent US20210154122A1", "about": "“TOPICAL COMPOSITION” (OTSUKA PHARMACEUTICAL CO., LTD., priority 2017, published 2021)", "origin": "cited, not measured here", "test_system": "keratocytes", "conditions": "keratocytes treated with uridine; disclosed in Patent Document 5 (JP 2009-517380 A)", "data": [{"molecule": "O=c1ccn([C@@H]2O[C@H](CO)[C@@H](O)[C@H]2O)c(=O)[nH]1", "note": "[uridine]", "values": [{"measurement": "hyaluronic acid production", "result": "promoted"}]}]}
